Results: the NIST ThermoML archive (doi:10.1021/je060032n)

Assay: refractive index (Na D-line) (dimensionless); xn = mol fraction of the nth substance listed
Details: 101 kPa, Liquid, Standard Abbe refractometry

NCCNCCO [N-(2-aminoethyl)ethanolamine] + O
refractive index
Details	298.15 K	303.15 K	313.15 K	323.15 K	333.15 K
x1 = 0.05	1.37012	1.36931	1.36749	1.36542	1.36367
x1 = 0.07	1.38204	1.3811	1.37909	1.37696	1.37507
x1 = 0.1	1.39796	1.39682	1.39453	1.39214	1.38992
x1 = 0.2	1.43314	1.4318	1.4289	1.42583	1.42264
x1 = 0.3	1.45253	1.45087	1.44762	1.44425	1.44087
x1 = 0.4	1.46321	1.46158	1.45811	1.45463	1.45107
x1 = 0.5	1.4703	1.46857	1.46502	1.46146	1.45777
x1 = 0.5996	1.47498	1.47321	1.46961	1.46604	1.46223
x1 = 0.7011	1.47851	1.47671	1.47308	1.46938	1.4656
x1 = 0.8002	1.48101	1.47918	1.47552	1.47177	1.46805
x1 = 0.8979	1.48289	1.48103	1.47734	1.47359	1.46977
x1 = 1	1.48454	1.48269	1.47884	1.47516	1.47128
